The record followed here is patent US20220324909A1, “THERAPEUTIC PEPTIDES” (COHBAR, INC., priority 2019, published 2022).

Non-standard residues stand in square brackets, D forms with d. Primed or numbered codes have the meaning given here. No end group written: not given here. PEG12′ = polyethylene glycol moiety of 12 units

The subject of assay [1] is 3T3-L1 mouse adipocytes. As to the kind of experiment: Free fatty acid levels in cultured 3T3-L1 mouse adipocytes and insulin dependence (Example 17). The settings on record: isoproterenol 0.1 nM; for Free Fatty Acid Levels, Percent of Isoproterenol Control Activity No Insulin: peptide 10 μM alone, relative to isoproterenol treated cells; for Free Fatty Acid Levels, Percent of Isoproterenol Control Activity With Insulin: peptide 10 μM with 0.25 nM insulin, relative to 0.25 nM insulin treated cells. It is filed as cell-based. The protocol: The effect of the peptides on fatty acid metabolism can be assessed using an assay to monitor free fatty acid levels produced by cultured cells such as mouse adipocytes. […] Following 3 h incubation, conditioned medium from each well was transferred to a fresh 96-well plate. […] Absorbance values were expressed as percent control activity relative to 0.1 nM isoproterenol treated cells (no insulin) for 10 μM peptide alone or 0.25 nM insulin treated cells (with insulin) for 10 μM peptide in presence of 0.25 nM insulin. […] Data are presented as averages values from 2-3 independent experiments with each data point performed in triplicate.

The test system of assay [2] is C2C12 cells. As to the kind of experiment: Glucose utilization in cultured C2C12 cells and insulin dependence. The class given is cell-based, mouse. Conditions: 22 h; for Glucose Utilization, Percent of Control Activity No Insulin: peptide 10 μM alone, glucose in medium relative to untreated cells; for Glucose Utilization, Percent of Control Activity With Insulin: peptide 10 μM with 5-20 nM insulin, glucose in medium relative to insulin treated cells. The source says:
The effect of the peptides on glucose homeostasis can be assessed using an assay to monitor glucose utilization by cultured cells such as mouse myotubes. […] C2C12 mouse muscle cell line was purchased from Millipore Sigma (Saint Louis, Mo.). […] Three days after plating the medium was removed and with Differentiation Medium (DMEM/low glucose (1 g/L)+2% Horse Serum+antibiotics) added. […] After 5 days of differentiation, the medium was removed from myotube cultures and replaced with Assay Medium (DMEM/low glucose (1 g/L)+antibiotics). […] Following the 5 h incubation the medium was removed and fresh Assay Medium containing compounds added; 10 μM peptide in absence or presence of 5-20 nM insulin, or 1 mM metformin as a potent stimulator of glucose utilization. […] Following 22 h incubation, conditioned medium from each well was transferred to a fresh 96-well plate. Glucose concentrations in the medium were determined using a Glucose Assay kit (Abcam; Cambridge, Mass.) according to the manufacturer's instructions; absorbance measured using a Cytation 3 plate reader at 570 nm (BioTek, Winooski, Vt.). Absorbance values were expressed as percent control activity relative to untreated treated cells (no insulin) for 10 μM peptide alone or 5-20 nM insulin treated cells (with insulin) for 10 μM peptide in presence of 5-20 nM insulin. Untreated cells were used as reference for basal glucose utilization. The relative standard deviation from plate to plate of untreated control was <10%. Metformin at 1 mM was used as a potent control for increasing glucose utilization. Glucose levels for metformin (1 mM) treatment were <10% of the untreated control value. Data are presented as averages values from 2-3 independent experiments with each data point performed in triplicate.

Assay [3] has as its system H4-IIE cells. As to the kind of experiment: Glucose production in cultured H4-IIE cells and insulin dependence. The class given is cell-based, rat. The settings on record: 24 h; for Glucose Production, Percent of Control Activity No Insulin: peptide 10 μM alone, relative to untreated cells; for Glucose Production, Percent of Control Activity With Insulin: peptide 10 μM with 800 μM insulin, relative to insulin treated cells. How it is done: The effect of the peptides on glucose homeostasis can be assessed using an assay to monitor glucose production by cultured cells such as rat hepatocytes. […] Following 24 h incubation, conditioned medium from each well was transferred to a fresh 96-well plate. Glucose concentrations in the medium were determined using a Glucose Assay kit (Abcam; Cambridge, Mass.) according to the manufacturer's instructions; absorbance measured using a Cytation 3 plate reader at 570 nm (BioTek, Winooski, Vt.). […] Untreated cells were used as reference for maximal glucose production. […] Insulin at 800 μM was used as a modest inhibitor glucose production. […] Data are presented as averages values from 2-4 independent experiments with each data point performed in triplicate.

On to 24 (RRMVYQCLEG[dA]) [compound 24], for which, in assay [1], the “Free Fatty Acid Levels, Percent of Isoproterenol Control Activity No Insulin” value is 108% and the “Free Fatty Acid Levels, Percent of Isoproterenol Control Activity With Insulin” value is on record as 59.2%. Besides, in assay [2], the “Glucose Utilization, Percent of Control Activity No Insulin” value is 98.8% and the “Glucose Utilization, Percent of Control Activity With Insulin” value worked out at 85.8%. Moreover, in assay [3], the “Glucose Production, Percent of Control Activity No Insulin” value is on record as 107.6% and the “Glucose Production, Percent of Control Activity With Insulin” value was 61.9%.
Consider 23 (RRMVFQCLEG[dA]) [compound 23], for which, in assay [1], the “Free Fatty Acid Levels, Percent of Isoproterenol Control Activity No Insulin” value turned out to be 104% and the “Free Fatty Acid Levels, Percent of Isoproterenol Control Activity With Insulin” value was 57.7%. For the same substance, in assay [2], the “Glucose Utilization, Percent of Control Activity No Insulin” value stood at 102% and the “Glucose Utilization, Percent of Control Activity With Insulin” value amounted to 86.6%. In assay [3], the “Glucose Production, Percent of Control Activity No Insulin” value is on record as 104.3% and the “Glucose Production, Percent of Control Activity With Insulin” value worked out at 57.7%.
28 (RRMGYQCLEG[dA]) [compound 28]: in assay [1], the “Free Fatty Acid Levels, Percent of Isoproterenol Control Activity No Insulin” value was found to be 109% and the “Free Fatty Acid Levels, Percent of Isoproterenol Control Activity With Insulin” value is 57.8%. In assay [2], the “Glucose Utilization, Percent of Control Activity No Insulin” value came out at 103.3% and the “Glucose Utilization, Percent of Control Activity With Insulin” value is reported as 88.2%. In addition, in assay [3], the “Glucose Production, Percent of Control Activity No Insulin” value was determined as 107.4% and the “Glucose Production, Percent of Control Activity With Insulin” value worked out at 91.4%.
For the substance 32 (RRMEVYQCLEG[dA]) [compound 32], in assay [1], the “Free Fatty Acid Levels, Percent of Isoproterenol Control Activity No Insulin” value is 108% and the “Free Fatty Acid Levels, Percent of Isoproterenol Control Activity With Insulin” value came to 62.9%. Besides, in assay [2], the “Glucose Utilization, Percent of Control Activity No Insulin” value worked out at 103.8% and the “Glucose Utilization, Percent of Control Activity With Insulin” value amounted to 85.0%. Moreover, in assay [3], the “Glucose Production, Percent of Control Activity No Insulin” value was 99.5% and the “Glucose Production, Percent of Control Activity With Insulin” value was 81.9%.
For the substance “22 (RRMVYQCLCG[dA]; cysteine pairing not given here) [compound 22]”, in assay [1], the “Free Fatty Acid Levels, Percent of Isoproterenol Control Activity No Insulin” value is 107% and the “Free Fatty Acid Levels, Percent of Isoproterenol Control Activity With Insulin” value is recorded as 61.9%. In addition, in assay [2], the “Glucose Utilization, Percent of Control Activity No Insulin” value came out at 100.9% and the “Glucose Utilization, Percent of Control Activity With Insulin” value is reported as 79.8%. In assay [3], the “Glucose Production, Percent of Control Activity No Insulin” value stood at 109.8% and the “Glucose Production, Percent of Control Activity With Insulin” value is on record as 49.1%.
With “30 (RRMMGMVAQCLEGA; (14)..(14) RRMMGMVAQCLEG(A) [compound 30]”, in assay [1], the “Free Fatty Acid Levels, Percent of Isoproterenol Control Activity No Insulin” value is given as 102% and the “Free Fatty Acid Levels, Percent of Isoproterenol Control Activity With Insulin” value is recorded as 56.0%. In assay [2], the “Glucose Utilization, Percent of Control Activity No Insulin” value was found to be 97.7% and the “Glucose Utilization, Percent of Control Activity With Insulin” value is on record as 88.3%. In assay [3], the “Glucose Production, Percent of Control Activity No Insulin” value was determined as 105.7% and the “Glucose Production, Percent of Control Activity With Insulin” value came to 65.7%.
On to “20 (KRRMMGMVFQCLCGA; (1)..(1) PEG12; (15)..(15) d-Ala) [compound 20]”, for which, in assay [1], the “Free Fatty Acid Levels, Percent of Isoproterenol Control Activity No Insulin” value is recorded as 101% and the “Free Fatty Acid Levels, Percent of Isoproterenol Control Activity With Insulin” value is recorded as 90.7%. For the same substance, in assay [2], the “Glucose Utilization, Percent of Control Activity No Insulin” value was determined as 108% and the “Glucose Utilization, Percent of Control Activity With Insulin” value is 91%. In addition, in assay [3], the “Glucose Production, Percent of Control Activity No Insulin” value came out at 98.4% and the “Glucose Production, Percent of Control Activity With Insulin” value is 108.6%.
Regarding 27 (RRMAYQCLEG[dA]) [compound 27], in assay [1], the “Free Fatty Acid Levels, Percent of Isoproterenol Control Activity No Insulin” value came to 108% and the “Free Fatty Acid Levels, Percent of Isoproterenol Control Activity With Insulin” value is 74.2%. In assay [2], the “Glucose Utilization, Percent of Control Activity No Insulin” value is listed as 101.2% and the “Glucose Utilization, Percent of Control Activity With Insulin” value was found to be 106.2%. Further, in assay [3], the “Glucose Production, Percent of Control Activity No Insulin” value stood at 101.7% and the “Glucose Production, Percent of Control Activity With Insulin” value is listed as 98.9%.
For 29 (RRMMGMVYQCLEG[dA]) [compound 29], in assay [1], the “Free Fatty Acid Levels, Percent of Isoproterenol Control Activity No Insulin” value was 110% and the “Free Fatty Acid Levels, Percent of Isoproterenol Control Activity With Insulin” value is recorded as 52.8%. Further, in assay [2], the “Glucose Utilization, Percent of Control Activity No Insulin” value was found to be 99.2% and the “Glucose Utilization, Percent of Control Activity With Insulin” value is given as 92.3%. In addition, in assay [3], the “Glucose Production, Percent of Control Activity No Insulin” value is reported as 113.9% and the “Glucose Production, Percent of Control Activity With Insulin” value worked out at 148.6%.
Consider “21 (RRMMGMVFQCLCG[dA]K(PEG12′); cysteine pairing not given here) [compound 21]”, for which, in assay [1], the “Free Fatty Acid Levels, Percent of Isoproterenol Control Activity No Insulin” value is on record as 109% and the “Free Fatty Acid Levels, Percent of Isoproterenol Control Activity With Insulin” value is given as 59.1%. In assay [2], the “Glucose Utilization, Percent of Control Activity No Insulin” value amounted to 107.5% and the “Glucose Utilization, Percent of Control Activity With Insulin” value was determined as 86%. In addition, in assay [3], the “Glucose Production, Percent of Control Activity No Insulin” value is given as 98.4% and the “Glucose Production, Percent of Control Activity With Insulin” value was determined as 72.7%.
As to 26 (RREMVYQCLEG[dA]) [compound 26], in assay [1], the “Free Fatty Acid Levels, Percent of Isoproterenol Control Activity No Insulin” value is 104% and the “Free Fatty Acid Levels, Percent of Isoproterenol Control Activity With Insulin” value is listed as 52.8%. In assay [2], the “Glucose Utilization, Percent of Control Activity No Insulin” value is 102.2% and the “Glucose Utilization, Percent of Control Activity With Insulin” value turned out to be 98.4%. Besides, in assay [3], the “Glucose Production, Percent of Control Activity No Insulin” value is reported as 111.5% and the “Glucose Production, Percent of Control Activity With Insulin” value is 103.1%.
Consider “31 (RRMEVYQCLCG[dA]; not fully specified; printed as RRMEVYQCLCG(dA); cysteine pairing not given here) [compound 31]”, for which, in assay [1], the “Free Fatty Acid Levels, Percent of Isoproterenol Control Activity No Insulin” value was determined as 113% and the “Free Fatty Acid Levels, Percent of Isoproterenol Control Activity With Insulin” value is listed as 94.6%. Besides, in assay [2], the “Glucose Utilization, Percent of Control Activity No Insulin” value is reported as 103.7% and the “Glucose Utilization, Percent of Control Activity With Insulin” value worked out at 99.2%. In addition, in assay [3], the “Glucose Production, Percent of Control Activity No Insulin” value turned out to be 95.5% and the “Glucose Production, Percent of Control Activity With Insulin” value is 108.3%.
For “25 (RREMVYQCLCG[dA]; cysteine pairing not given here) [compound 25]”, in assay [1], the “Free Fatty Acid Levels, Percent of Isoproterenol Control Activity No Insulin” value is reported as 110% and the “Free Fatty Acid Levels, Percent of Isoproterenol Control Activity With Insulin” value worked out at 67.4%. Also, in assay [2], the “Glucose Utilization, Percent of Control Activity No Insulin” value is 99.9% and the “Glucose Utilization, Percent of Control Activity With Insulin” value was 77.4%. In assay [3], the “Glucose Production, Percent of Control Activity No Insulin” value was 108.2% and the “Glucose Production, Percent of Control Activity With Insulin” value is given as 65.2%.
